Type: physicochemical
Procedure: The measured values for the tested systems were Δπ=245 atmospheres, A=2.41 cm^2, S=333 mg/ ml. Thickness of the membrane was measured directly with a table micrometer. Osmotic pressure was measured on saturated solutions of potassium chloride at 37° C. using a Knauer model VPO vapor pressure osmometer and standard reference solutions of known osmotic pressure for comparison. Surface area of the tablet core was determined by first measuring the dimensions of the tablet core and then calculating surface area using standard mensuration formulae. Drug solubility was determined by measuring the concentration of a saturated solution of potassium chloride by conductivity analysis using a conductivity meter and reference solutions of potassium chloride of known aqueous concentrations. Average release rate was calculated by measuring the mass of potassium chloride released per 2-hour intervals of time according to the experimental procedures described in Example 3. Then, the total mass of potassium chloride released was summed for all whole 2-hour intervals between 20% and 70% (100 mg to 350 mg of potassium chloride) of the initial dose present within the dosage form (500 mg). Finally, the total mass of drug released during these whole intervals was divided by the sum of these time intervals to arrive at the average release rate. […]

[Cl-].[K+] [potassium chloride]
drug solubility S (saturated aqueous solution): 333 mg/mL | osmotic pressure Δπ (saturated solution at 37° C.): 245 atmospheres

— US20060165798A1, “Oral osmotic dosage form having a high flux membrane” (priority 2005, published 2006)
